Source: ChEMBL document CHEMBL1201862, “PubChem BioAssay data set” (2004)
Activity calls are given as the source filed them.

What was measured:
Phospholipase D1 = Phospholipase D1 (Homo sapiens, UniProt Q13393); assay: cellular phospholipase D1 inhibition IC50 – cell-based, dose response (AID 602151); format: functional;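 note: cellular PLD1 assay in Calu-1 cells stimulated with PMA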
Phospholipase D2 = Phospholipase D2 (Homo sapiens, UniProt O14939); assay: cellular phospholipase D2 inhibition IC50 – cell-based, dose response (AID 602147); format: functional;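 note: cellular assay in HEK293 cells overexpressing GFP-tagged PLD2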
Candida albicans [1] = assay: resistant Candida growth with fluconazole co-treatment – CaCi-8 strain, Alamar Blue, dry powder, set 3, dose response (AID 488905); format: functional, organism-based
Candida albicans [2] = assay: Candida growth inhibition combined with fluconazole – CaCi-2 strain, Alamar Blue, dry powder, set 3, dose response (AID 488907); format: functional, organism-based
[3] = PAX8-dependent cell viability loss – plate reader, dry powder, dose response (AID 743049); format: functional, cell-based
[4] = general cell-killing toxicity readout – plate reader, dry powder samples, cytotoxicity control for PAX8 inhibitor project, dose response (AID 743021); format: functional, cell-based
[5] = OVCAR4 cell viability loss – plate reader, dry powder, SA11, cytotoxicity control for PAX8 inhibitor project, dose response (AID 743150); format: functional, cell-based; settings: OVCAR-4
[6] = molecular target: ATP-binding cassette sub-family B member 6 (Homo sapiens, UniProt Q9NP58); assay: ABCB6 transporter inhibitors, porphyrin accumulation, dose response, flow cytometry, K562-ABCB6 cells, cherry pick 02 (AID 624487); format: functional; settings: read-out: EC50_MICROM
[7] = A2780 cell killing – plate reader, dry powder samples, cytotoxicity control, dose response (AID 743046); format: functional, cell-based
[8] = molecular target: T1, Replicative DNA helicase DnaB (Mycobacterium tuberculosis, UniProt P9WMR3); assay: DnaB intein splicing inhibitors, dose response, biochemical, cell-free fluorescence (AID 449749); format: functional
T1 sequence (P9WMR3 whole entry): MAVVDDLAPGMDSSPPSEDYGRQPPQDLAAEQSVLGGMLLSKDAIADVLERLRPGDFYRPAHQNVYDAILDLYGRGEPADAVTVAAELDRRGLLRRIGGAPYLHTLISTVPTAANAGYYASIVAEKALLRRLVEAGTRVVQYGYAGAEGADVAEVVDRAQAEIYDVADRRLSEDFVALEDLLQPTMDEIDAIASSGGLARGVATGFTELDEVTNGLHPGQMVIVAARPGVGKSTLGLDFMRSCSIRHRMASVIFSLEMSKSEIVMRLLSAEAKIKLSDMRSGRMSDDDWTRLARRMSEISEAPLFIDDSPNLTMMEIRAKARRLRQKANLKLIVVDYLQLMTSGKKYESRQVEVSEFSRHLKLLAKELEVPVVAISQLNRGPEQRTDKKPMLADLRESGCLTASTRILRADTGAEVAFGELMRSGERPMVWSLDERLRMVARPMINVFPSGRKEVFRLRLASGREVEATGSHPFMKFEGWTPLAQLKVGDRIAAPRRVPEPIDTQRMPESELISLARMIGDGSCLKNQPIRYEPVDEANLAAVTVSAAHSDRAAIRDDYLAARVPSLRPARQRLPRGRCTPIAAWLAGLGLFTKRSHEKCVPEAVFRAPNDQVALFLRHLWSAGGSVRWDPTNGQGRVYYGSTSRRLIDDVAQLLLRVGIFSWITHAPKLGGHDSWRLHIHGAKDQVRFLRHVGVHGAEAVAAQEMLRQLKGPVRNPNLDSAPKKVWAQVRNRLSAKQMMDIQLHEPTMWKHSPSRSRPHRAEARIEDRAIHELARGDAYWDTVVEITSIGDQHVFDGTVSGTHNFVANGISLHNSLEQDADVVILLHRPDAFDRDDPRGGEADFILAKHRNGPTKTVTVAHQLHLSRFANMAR

Protein RecA = molecular target: T2, Protein RecA (Mycobacterium tuberculosis, UniProt P9WHJ3); assay: Fluorescence Cell-Free Homogeneous Dose Retest to Identify Inhibitors of RecA-Intein Splicing Activity. [Related pubchem assays (depositor defined):AID2097, AID2223, AID489010, AID492950]; format: functional
T2 sequence (P9WHJ3 whole entry): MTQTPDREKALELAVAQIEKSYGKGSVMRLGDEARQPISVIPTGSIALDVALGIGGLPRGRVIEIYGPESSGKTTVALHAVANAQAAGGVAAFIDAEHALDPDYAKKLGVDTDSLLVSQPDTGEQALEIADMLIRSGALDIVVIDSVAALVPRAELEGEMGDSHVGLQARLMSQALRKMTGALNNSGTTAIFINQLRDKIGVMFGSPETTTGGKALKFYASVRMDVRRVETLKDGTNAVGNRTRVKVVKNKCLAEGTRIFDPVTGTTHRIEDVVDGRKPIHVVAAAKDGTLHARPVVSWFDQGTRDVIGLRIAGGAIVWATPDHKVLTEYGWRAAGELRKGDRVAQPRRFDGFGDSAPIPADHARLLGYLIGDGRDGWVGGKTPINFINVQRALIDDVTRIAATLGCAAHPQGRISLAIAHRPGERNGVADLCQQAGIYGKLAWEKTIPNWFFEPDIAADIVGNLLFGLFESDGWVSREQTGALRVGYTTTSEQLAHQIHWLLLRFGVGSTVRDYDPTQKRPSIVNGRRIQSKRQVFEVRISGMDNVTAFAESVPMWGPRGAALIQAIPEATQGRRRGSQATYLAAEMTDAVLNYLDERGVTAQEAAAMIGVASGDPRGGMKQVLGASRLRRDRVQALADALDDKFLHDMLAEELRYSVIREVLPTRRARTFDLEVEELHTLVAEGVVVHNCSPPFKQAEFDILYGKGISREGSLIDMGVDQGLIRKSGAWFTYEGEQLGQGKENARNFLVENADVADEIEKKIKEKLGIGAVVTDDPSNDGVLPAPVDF

[9] = OVCAR-3 cell viability loss – plate reader, dry powder samples, PAX8 inhibitor project, dose response (AID 743044); format: functional, cell-based
[10] = molecular target: T3, Ubiquitin-conjugating enzyme E2 N (Homo sapiens, UniProt P61088); format: functional
T3 sequence (P61088 whole entry): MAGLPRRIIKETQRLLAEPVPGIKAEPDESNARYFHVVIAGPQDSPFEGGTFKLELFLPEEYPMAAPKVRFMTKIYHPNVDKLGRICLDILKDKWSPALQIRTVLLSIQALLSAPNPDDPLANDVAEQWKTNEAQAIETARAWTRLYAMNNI

[11] = non-specific 3'UTR reporter inhibition in Clone20-Shn3RL – cell-based, Renilla luciferase, cherry-picked, counter-screen for Shn3 inhibitor project, dose response (AID 624133); format: functional
[12] = molecular target: T3, Ubiquitin-conjugating enzyme E2 N; format: functional; remark: listed apart in the source
[13] = COV434 cell viability loss – plate reader, dry powder, SA7, cytotoxicity control for PAX8 inhibitor project, dose response (AID 743145); format: functional, cell-based
[14] = molecular target: T4, Microphthalmia-associated transcription factor (Homo sapiens, UniProt O75030); assay: reducers of TRPM1 reporter luminescence, concentration series – cell-based, SK-MEL-5, cherry-picked, set 3, MITF inhibitor project, dose response (AID 493073); format: functional;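 note: SK-MEL-5 melanoma cells with luciferase driven by the MITF target TRPM1 promoter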
T4 sequence (O75030 whole entry): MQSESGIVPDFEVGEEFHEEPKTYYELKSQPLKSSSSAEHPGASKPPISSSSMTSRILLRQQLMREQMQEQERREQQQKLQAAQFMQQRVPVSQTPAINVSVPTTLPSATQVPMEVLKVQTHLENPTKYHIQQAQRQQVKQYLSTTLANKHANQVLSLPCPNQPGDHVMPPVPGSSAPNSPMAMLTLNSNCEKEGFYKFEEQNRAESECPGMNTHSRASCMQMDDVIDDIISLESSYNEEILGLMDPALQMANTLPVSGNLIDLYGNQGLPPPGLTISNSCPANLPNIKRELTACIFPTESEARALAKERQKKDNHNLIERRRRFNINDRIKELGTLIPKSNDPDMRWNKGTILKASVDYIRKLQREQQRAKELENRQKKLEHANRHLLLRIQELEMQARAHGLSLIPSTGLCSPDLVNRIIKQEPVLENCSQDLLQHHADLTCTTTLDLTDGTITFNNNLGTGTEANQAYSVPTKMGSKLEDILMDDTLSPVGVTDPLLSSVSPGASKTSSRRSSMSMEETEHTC

[15] = loss of viability in HepG2 cells – cell-based, CellTiter-Glo, cherry-picked, cytotoxicity control for Shn3 inhibitor project, dose response (AID 624134); format: functional
Beta Lactamase = Beta Lactamase (Pseudomonas aeruginosa, UniProt Q932Y6); assay: BLA reporter interference, concentration series – BLA reporter cells, FRET fluorescence, artefact control for TLR9-MyD88 binding inhibitor project, dose response (AID 588341); format: cell-based;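 note: cell based assay in CHO-K1 cells stably expressing beta-lactamase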
CHO = CHO cell viability loss, potency – luminescence, cytotoxicity control for TLR9-MyD88 binding inhibitor project, dose response (AID 588339); format: functional, cell-based, hamster; settings: Cricetulus griseus;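 note: CHO cells stably coexpressing TLR9 and MyD88 fusions from primary screen; compound exposure lasted 48 hours before viability readout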
[16] = COV362 cell viability loss – plate reader, dry powder, SA12, cytotoxicity control for PAX8 inhibitor project, dose response (AID 743144); format: functional, cell-based
[17] = reduction of Shn3 3'UTR-driven luciferase in osteoblasts – cell-based, Clone20 osteoblasts, firefly luciferase, cherry-picked, dose response (AID 624132); format: functional;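 note: firefly luciferase luminescence from reporter carrying the Shn3 3'UTR in osteoblasts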
Paired box protein Pax-8 = Paired box protein Pax-8 (Homo sapiens, UniProt Q06710); assay: PAX8 transcriptional activity inhibition in RMG-I – RMG-I cells, luciferase, cherry-pick, dose response (AID 687027); format: functional, cell-based;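 note: luciferase reporter driven by Pax8 target thyroperoxidase promoter measured by SteadyGlo luminescence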
[18] = toxicity toward immortalized ovarian surface epithelium – cell-based, plate reader, dry powder samples, cytotoxicity control for PAX8 inhibitor project, dose response (AID 743045); format: functional
[19] = OV-90 cell viability loss – plate reader, dry powder, SA8, PAX8 inhibitor project, dose response (AID 743149); format: functional, cell-based
Bcl-2-related protein A1 = molecular target: T5, Bcl-2-related protein A1 (Mus musculus, UniProt Q07440); format: functional;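 note: confirmatory dose–response counterscreen on Bfl-1, used to check hits from a UBC13 polyubiquitin inhibitor campaign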
T5 sequence (Q07440 whole entry): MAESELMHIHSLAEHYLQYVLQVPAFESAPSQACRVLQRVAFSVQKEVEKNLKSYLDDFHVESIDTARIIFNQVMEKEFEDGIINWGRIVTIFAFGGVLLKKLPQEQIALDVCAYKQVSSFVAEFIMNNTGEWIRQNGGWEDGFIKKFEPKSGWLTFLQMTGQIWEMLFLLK

[20] = IGROV1 cell killing – plate reader, dry powder samples, PAX8 inhibitor project, dose response (AID 743043); format: functional, cell-based; settings: IGROV-1

Beta Lactamase, sequence (Q932Y6 whole entry, the tested form may be a part): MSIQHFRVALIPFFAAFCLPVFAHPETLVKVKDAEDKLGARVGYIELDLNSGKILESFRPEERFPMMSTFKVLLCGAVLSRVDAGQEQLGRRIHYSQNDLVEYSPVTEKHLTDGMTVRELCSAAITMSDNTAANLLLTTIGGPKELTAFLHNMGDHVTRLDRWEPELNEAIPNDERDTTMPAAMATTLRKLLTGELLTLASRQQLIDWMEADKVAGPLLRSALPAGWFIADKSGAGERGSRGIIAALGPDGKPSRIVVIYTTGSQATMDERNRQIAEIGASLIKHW
Paired box protein Pax-8, sequence (Q06710 whole entry): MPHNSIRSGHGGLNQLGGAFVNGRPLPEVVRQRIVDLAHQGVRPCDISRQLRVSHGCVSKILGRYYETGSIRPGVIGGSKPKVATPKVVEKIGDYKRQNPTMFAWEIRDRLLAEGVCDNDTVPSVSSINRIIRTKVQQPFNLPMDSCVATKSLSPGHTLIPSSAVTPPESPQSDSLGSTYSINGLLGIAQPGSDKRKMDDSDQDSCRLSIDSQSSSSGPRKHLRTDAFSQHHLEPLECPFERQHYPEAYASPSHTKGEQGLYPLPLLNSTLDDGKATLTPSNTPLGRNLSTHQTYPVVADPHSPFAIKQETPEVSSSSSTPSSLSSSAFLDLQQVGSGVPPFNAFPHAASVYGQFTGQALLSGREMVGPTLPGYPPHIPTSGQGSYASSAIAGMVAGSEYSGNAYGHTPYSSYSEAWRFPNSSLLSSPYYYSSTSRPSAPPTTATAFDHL
Phospholipase D2, sequence (O14939 whole entry): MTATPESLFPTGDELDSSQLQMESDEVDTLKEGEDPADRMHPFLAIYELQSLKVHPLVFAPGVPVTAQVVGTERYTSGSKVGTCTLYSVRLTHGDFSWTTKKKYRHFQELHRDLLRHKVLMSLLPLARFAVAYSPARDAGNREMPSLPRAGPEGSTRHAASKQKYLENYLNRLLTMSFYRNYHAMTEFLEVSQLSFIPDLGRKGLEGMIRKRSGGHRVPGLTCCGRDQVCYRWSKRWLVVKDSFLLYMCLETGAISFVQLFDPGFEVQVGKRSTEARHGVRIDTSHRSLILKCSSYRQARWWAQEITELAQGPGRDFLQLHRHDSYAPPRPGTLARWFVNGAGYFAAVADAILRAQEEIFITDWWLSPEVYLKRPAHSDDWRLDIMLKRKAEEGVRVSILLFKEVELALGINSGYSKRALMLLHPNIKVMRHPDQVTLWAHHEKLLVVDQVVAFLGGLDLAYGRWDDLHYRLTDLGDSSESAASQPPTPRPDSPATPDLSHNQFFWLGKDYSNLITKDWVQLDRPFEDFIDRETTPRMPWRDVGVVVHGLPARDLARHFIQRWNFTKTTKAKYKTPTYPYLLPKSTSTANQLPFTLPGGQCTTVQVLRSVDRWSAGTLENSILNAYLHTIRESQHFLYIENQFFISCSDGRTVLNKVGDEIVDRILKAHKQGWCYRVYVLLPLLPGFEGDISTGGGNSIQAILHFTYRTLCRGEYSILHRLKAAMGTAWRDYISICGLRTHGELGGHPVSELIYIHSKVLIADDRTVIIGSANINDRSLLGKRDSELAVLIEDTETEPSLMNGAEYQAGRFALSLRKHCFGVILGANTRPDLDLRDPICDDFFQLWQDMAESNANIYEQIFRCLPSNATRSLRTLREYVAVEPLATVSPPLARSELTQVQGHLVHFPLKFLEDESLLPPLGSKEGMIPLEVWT
ATP-binding cassette sub-family B member 6, sequence (Q9NP58 whole entry): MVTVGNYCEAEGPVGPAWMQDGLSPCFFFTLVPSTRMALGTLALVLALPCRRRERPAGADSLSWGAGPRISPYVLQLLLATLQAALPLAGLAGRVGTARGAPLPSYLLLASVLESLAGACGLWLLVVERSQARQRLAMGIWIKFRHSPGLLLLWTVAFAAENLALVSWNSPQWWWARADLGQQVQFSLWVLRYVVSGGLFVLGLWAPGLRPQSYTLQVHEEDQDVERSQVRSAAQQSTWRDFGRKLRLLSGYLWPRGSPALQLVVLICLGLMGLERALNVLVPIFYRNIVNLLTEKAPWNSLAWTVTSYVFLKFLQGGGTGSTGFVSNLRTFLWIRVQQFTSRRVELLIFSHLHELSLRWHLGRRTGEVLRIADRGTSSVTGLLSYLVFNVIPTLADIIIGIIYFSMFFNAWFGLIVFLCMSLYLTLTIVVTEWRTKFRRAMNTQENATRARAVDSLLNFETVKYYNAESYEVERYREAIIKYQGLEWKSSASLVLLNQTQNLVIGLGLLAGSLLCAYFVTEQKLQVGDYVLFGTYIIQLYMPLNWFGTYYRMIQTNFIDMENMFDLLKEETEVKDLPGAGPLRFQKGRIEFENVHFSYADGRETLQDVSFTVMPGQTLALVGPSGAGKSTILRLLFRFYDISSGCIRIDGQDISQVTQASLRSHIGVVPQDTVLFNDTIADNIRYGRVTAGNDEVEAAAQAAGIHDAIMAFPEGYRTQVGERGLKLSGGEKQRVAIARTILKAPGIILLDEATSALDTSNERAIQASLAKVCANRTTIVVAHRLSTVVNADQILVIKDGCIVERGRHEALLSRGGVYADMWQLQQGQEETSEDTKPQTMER
Phospholipase D1, sequence (Q13393 whole entry): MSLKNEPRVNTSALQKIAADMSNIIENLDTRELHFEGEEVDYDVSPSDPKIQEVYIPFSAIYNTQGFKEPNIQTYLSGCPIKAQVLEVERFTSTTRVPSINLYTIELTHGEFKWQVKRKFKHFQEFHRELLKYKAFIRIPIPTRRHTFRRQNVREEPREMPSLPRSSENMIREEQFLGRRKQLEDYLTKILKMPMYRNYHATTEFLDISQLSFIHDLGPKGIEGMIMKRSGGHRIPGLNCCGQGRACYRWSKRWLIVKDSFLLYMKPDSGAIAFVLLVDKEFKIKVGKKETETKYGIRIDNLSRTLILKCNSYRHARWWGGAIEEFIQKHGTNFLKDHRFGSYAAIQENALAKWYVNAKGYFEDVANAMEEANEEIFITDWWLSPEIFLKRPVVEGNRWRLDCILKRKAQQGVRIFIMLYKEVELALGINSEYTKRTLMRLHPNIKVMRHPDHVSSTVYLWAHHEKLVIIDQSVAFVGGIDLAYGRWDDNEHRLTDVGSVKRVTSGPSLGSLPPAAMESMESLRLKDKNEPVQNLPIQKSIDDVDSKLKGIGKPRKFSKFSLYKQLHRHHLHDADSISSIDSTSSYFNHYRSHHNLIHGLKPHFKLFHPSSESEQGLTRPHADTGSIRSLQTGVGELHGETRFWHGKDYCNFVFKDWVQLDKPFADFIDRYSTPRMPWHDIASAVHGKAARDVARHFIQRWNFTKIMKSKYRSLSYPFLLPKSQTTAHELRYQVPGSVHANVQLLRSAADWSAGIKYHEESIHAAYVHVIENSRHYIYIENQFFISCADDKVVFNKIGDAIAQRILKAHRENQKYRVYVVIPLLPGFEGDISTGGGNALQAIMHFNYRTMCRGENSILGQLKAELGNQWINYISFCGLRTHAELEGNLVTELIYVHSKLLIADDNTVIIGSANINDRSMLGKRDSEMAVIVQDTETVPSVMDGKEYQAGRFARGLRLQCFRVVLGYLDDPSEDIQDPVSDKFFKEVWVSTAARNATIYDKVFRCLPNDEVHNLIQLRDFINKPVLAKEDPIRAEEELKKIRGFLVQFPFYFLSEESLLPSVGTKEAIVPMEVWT

O=C(NCCN1CCN(c2ccncc2)CC1)c1cc2cc(F)ccc2[nH]1
active: IC50 (Phospholipase D1) 3.6 µM | IC50 (Phospholipase D2) 15 µM

CCCCC(=O)N1CCN(c2ccccn2)CC1
active: AC50 (Candida albicans [1]) 0.283 µM | AC50 (Candida albicans [2]) 0.73 µM

CC(=O)Nc1ccc(NC(=O)c2nc(S(=O)(=O)Cc3ccccc3)ncc2Cl)cc1
active: AC50 [3] 17.6 µM | AC50 [4] 20.7 µM | AC50 [5] 25.9 µM | EC50 [6] 8.72 µM | AC50 [7] 10.2 µM | AC50 [8] 11.2 µM | EC50 (Protein RecA) 9.36 µM | AC50 [9] 15.3 µM | AC50 [11] 6.33 µM | IC50 [12] 10.9 µM | AC50 [13] 12.7 µM | AC50 [14] 12.8 µM | AC50 [15] 28.6 µM | IC50 (Beta Lactamase) 7.61 µM | IC50 (CHO) 6.31 µM | AC50 [16] 23.1 µM | AC50 [17] 0.773 µM | AC50 (Paired box protein Pax-8) 9.86 µM | AC50 [18] 18.2 µM | AC50 [19] 30 µM | AC50 [20] 15.8 µM
inactive: IC50 [10] > 20 µM | IC50 (Bcl-2-related protein A1) > 20 µM
